Assay results as given in US20070282004A1, “Use of a Cyclopentenone Prostaglandin for Delaying for the Onset and/or Preventing the Continuation of Labour” (Imperial College Innovations Limited, priority 2003, published 2007).

Legend:
TNFα = test: Mouse model of preterm labour (LPS): placental TNFα by ELISA; type: in vivo; conditions: gestation day 16 mice, 6 hours after intrauterine LPS + 15d-PGJ2 vs LPS + vehicle
Method: (§1) Surgery was performed on timed pregnant MF1 mice at day 16 of gestation. After deep maternal anaesthesia was attained, a minilaparotomy was performed in the lower abdomen. The uterine horns were exposed through the incision and preterm labour was induced by the intrauterine injection of 250 μg lipopolysaccharide (LPS, Sigma) into the gravid horn. This was immediately followed by injection of 4 μg […] (Cayman), or an equal volume of vehicle (methyl acetate), at the same site. The uterus was then returned to the abdomen and the fascia and skin were closed with continuous vicryl sutures.
Mice were sacrificed 6 hours after injection of LPS±15d-PGJ2. Placentae were washed in phosphate buffered saline (PBS), flash frozen in liquid nitrogen and stored at −80° C. until further processing. Fetuses were washed in PBS, then immediately fixed in 4% parafornaldellyde for 24 h and then stored in 70% ethanol until further processing. […]
(§2) Homogenate levels of Interlekin-1β (IL-1β) and tumour necrosis factor α (TNFα) were determined in placental lysates by ELISA (R and D systems) according to manufacturers instructions. Total protein concentrations were determined for each homogenate and IL-1β and TNFα levels were expressed as pg/mg total protein. […] Phosphorylated p65 (phospho-p65) was detected by western immunoblotting using a specific antibody (Santa Cruz) and quantified by densitometric analysis.

IL-1β = test: Mouse model of preterm labour (LPS): placental IL-1β by ELISA; type: in vivo; conditions: gestation day 16 mice, 6 hours after intrauterine 250 μg LPS + 4 μg 15d-PGJ2, p<0.05
Method: Concentrations of IL-1β in placental homogenates collected from gestation day 16 mice 6 hours after intrauterine injection of 250 μg LPS+vehicle or 250 μg LPS+4 μg 15d-PGJ2. * denotes statistically significant difference (t-test (p<0.05)).
as §1
(§3) Mice were sacrificed 6 hours after injection of LPS±15d-PGJ2. […]
as §2

phospho-p65 = test: Mouse model of preterm labour (LPS): placental phospho-p65 by western immunoblot; type: in vivo; conditions: gestation day 16 mice, 6 hours after intrauterine 250 μg LPS + 15d-PGJ2, p<0.05
Method: Relative concentrations of phospho-p65 in placental homogenates collected from gestation day 16 mice 6 hours after intrauterine injection of 250 μg LPS+vehicle or 250 μg LPS+[…] 15d-PGJ2. * denotes statistically significant difference (t-test (p<0.05)).
as §1, §3, §2

PPARα = conditions: Forman et al., 1995; cited from earlier work
NF-κB = test: Western immunoblot of p65, p50, IκB in amnion cell extracts; type: cell-based, human; conditions: L−, L+ amnion cells; for IL-1β-induced p65 nuclear translocation: treated 2 h, IL-1β 15 min
Method: Western immunoblots of nuclear or cytosolic protein extracts from (A) myometrial cells, (B) L− amnion cells, and (C) L+ amnion cells treated with 15dPGJ2 or vehicle for 2 h±IL-1β stimulation (15 min). Blots probed with antibodies against p65, p50 or IκBα.
Placentae were obtained from patients at term either at elective Caesarean section prior to labour (L−) or following spontaneous labour onset and vaginal delivery (L+). Amnion cells were prepared as described in Bennett et al., (1989). Briefly, the amnion was separated from the placenta, washed 3× in PBS, cut into strips, and incubated in 0.5 mM EDTA in PBS for 15 min. The strips were washed in PBS 2× and digested with 2.5 mg/ml dispase in serum-free DMEM for 35 min at 37° C. The amnion was then shaken vigorously in DMEM, 10% FCS to dissociate the cells, the remaining strips discarded, and the cell suspension pelleted at 175 g for 10 min and cultured in DMEM, 10% FCS (Sigma), 1% L-glutamine, 1% penicillin-streptomycin.
Nuclear and cytosolic protein extracts were obtained from cultured amnion cells as described by Schreiber et al (1989). For nuclear/cytosolic fractionation, confluent cell monolayers were scraped and lysed using a buffer containing 10 mM HEPES, 10 mM KCl, 0.1 mM EDTA, 0.1 mM EGTA, 2 mM DTT, 1% (v/v) NP-40 and complete protease inhibitor tablets (CPIs, Roche), diluted to manufacturer's instructions. Cell lysates were incubated on ice for 10 min and NP-40 added to a final concentration of 1% (v/v). Lysates were vortexed for 10 secs and centrifuged for 30 secs at 4° C., 12000 g. The supernatants were retained as the cytosolic protein extracts. The pellets were resuspended in buffer containing 10 mM HEPES, 10 mM KCl, 0.1 mM EDTA, 0.1 mM EGTA, 2 mM DTT, 400 mM NaCl, 1% NP-40 (v/v) and CPIs. Samples were shaken vigorously for 15 min in an ice bath. The nuclear protein extracts were obtained in the supernatant following a 5 min centrifugation at 4° C., 12000 g.
Protein samples (20-70 μg) were mixed with Laemmli sample buffer (1:1) containing β-mercaptoethanol (5%), and boiled for 5 min. Proteins were then separated by SDS-PAGE (12-14% gels) and transferred onto PVDF membrane (Amersham Pharmacia Biotech). The membranes were blocked overnight in 5% non-fat milk prepared in PBS-T buffer, at 4° C. The blots were incubated with the primary antibody in 1% non-fat milk in PBS-T buffer for 1 h, and washed three times (10 min each) in PBS-T with vigorous shaking. The blots were then incubated with HRP-conjugated secondary antibody (diluted 1:2000 in 1% non-fat milk in PBS-T buffer) for 1 h and washed three times (10 min each) in PBS-T. Signal detection was achieved using enhanced chemi-luminescence (ECL plus system, Amersham Pharmacia Biotech) according to manufacturer's instructions.
30-50 μg protein extracts were subjected to SDS-PAGE and Western immuno-blotting. Secondary antibodies were IgG-HRP and ECL Plus detection kit (Amersham Pharmacia Biotech, Amersham Place, Little Chalfont, Bucks, HP7 9NA) was used for visualisation.

CCCCCC=CC=C1C(=O)C=C[C@@H]1CC=CCCCC(=O)O [15d-PGJ2, 15-deoxy-Δ^12,14prostaglandin J2]
TNFα levels in placentae according to drug treatment (TNFα): not significantly altered
Levels of IL-1β lower in proximal placentae vs LPS+vehicle (IL-1β): approximately 40%
phospho-p65 levels lower in proximal placentae vs LPS+vehicle (phospho-p65): approximately 35%
Transactivation of PPAR-α (PPARα): more weakly than PPAR-γ
IL-1β-induced IκBα degradation (NF-κB): inhibition
IL-1β-induced IκBβ degradation (NF-κB): inhibition
IL-1β-induced p50 phosphorylation (NF-κB): inhibition
IL-1β-induced p65 nuclear translocation (NF-κB): inhibited
IL-1β-induced p65 nuclear translocation (NF-κB; listed as 15dPGJ2): inhibition
